# Columns and labels:
# Format in all cases: in vivo
# [1] = tested on: barnyardgrass (Echinochloa crus-galli); assay: Test A preemergence, barnyardgrass; conditions: Preemergence, 0 to 100 scale (0 no effect, 100 complete control)
# Outline: (§1)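 Scores (0 no effect to 100 complete control) come from visual comparison of treated and untreated plants kept about 10 days in a greenhouse. Growth medium was a loam/sand blend; preemergence treatment was a directed soil spray, postemergence treatment went onto plants at the 1–2 leaf stage.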
# kochia (Kochia scoparia) [2] = assay: Test A preemergence, kochia; conditions: Preemergence, 0 to 100 scale (0 no effect, 100 complete control)
# Outline: as §1
# [3] = tested on: ragweed (common ragweed, Ambrosia elatior); assay: Test A preemergence, ragweed; conditions: Preemergence, 0 to 100 scale (0 no effect, 100 complete control)
# Outline: as §1
# [4] = tested on: ryegrass, Italian (Italian ryegrass, Lolium multiflorum); assay: Test A preemergence, Italian ryegrass; conditions: Preemergence, 0 to 100 scale (0 no effect, 100 complete control)
# Outline: as §1
# [5] = tested on: foxtail, giant (giant foxtail, Setaria faberii); assay: Test A preemergence, giant foxtail; conditions: Preemergence, 0 to 100 scale (0 no effect, 100 complete control)
# Outline: as §1
# [6] = tested on: pigweed (Amaranthus retroflexus); assay: Test A preemergence, pigweed; conditions: Preemergence, 0 to 100 scale (0 no effect, 100 complete control)
# Outline: as §1
# [7] = tested on: barnyardgrass (Echinochloa crus-galli); assay: Test A postemergence, barnyardgrass; conditions: postemergence, 0 to 100 scale, 0 is no effect, 100 is complete control, approximately 10 days
# Outline: as §1
# kochia (Kochia scoparia) [8] = assay: Test A postemergence, kochia; conditions: postemergence, 0 to 100 scale, 0 is no effect, 100 is complete control, approximately 10 days
# Outline: as §1
# [9] = tested on: ragweed (common ragweed, Ambrosia elatior); assay: Test A postemergence, ragweed; conditions: postemergence, 0 to 100 scale, 0 is no effect, 100 is complete control, approximately 10 days
# Outline: as §1
# [10] = tested on: ryegrass, Italian (Italian ryegrass, Lolium multiflorum); assay: Test A postemergence, Italian ryegrass; conditions: postemergence, 0 to 100 scale, 0 is no effect, 100 is complete control, approximately 10 days
# Outline: as §1
# [11] = tested on: foxtail, giant (giant foxtail, Setaria faberii); assay: Test A postemergence, giant foxtail; conditions: postemergence, 0 to 100 scale, 0 is no effect, 100 is complete control, approximately 10 days
# Outline: as §1
# [12] = tested on: pigweed (Amaranthus retroflexus); assay: Test A postemergence, pigweed; conditions: postemergence, 0 to 100 scale, 0 is no effect, 100 is complete control, approximately 10 days
# Outline: as §1
# [13] = tested on: wheat (Triticum aestivum); assay: Test A postemergence, wheat; conditions: postemergence, 0 to 100 scale, 0 is no effect, 100 is complete control, approximately 10 days
# Outline: as §1
# corn (Zea mays) = assay: Test A postemergence, corn; conditions: postemergence, 0 to 100 scale, 0 is no effect, 100 is complete control, approximately 10 days
# Outline: as §1
# [14] = tested on: blackgrass (Alopecurus myosuroides); assay: Test A postemergence, blackgrass; conditions: postemergence, 0 to 100 scale, 0 is no effect, 100 is complete control, approximately 10 days
# Outline: as §1
# [15] = tested on: galium (catchweed bedstraw, Galium aparine); assay: Test A postemergence, galium; conditions: postemergence, 0 to 100 scale, 0 is no effect, 100 is complete control, approximately 10 days
# Outline: as §1
# rice (Oryza sativa) = assay: Test B flooded paddy test, rice; conditions: 250 g ai/ha, Flood; visual rating after 13 to 15 days; scale 0 to 100, 0 is no effect, 100 is complete control
# Outline: (§2)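 Seedlings at the 2-leaf stage are flooded to 3 cm and treated via the paddy water. Greenhouse plants are compared with controls after 13 to 15 days and given a 0 (no effect) to 100 (complete control) rating.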
# [16] = tested on: sedge, umbrella (small-flower umbrella sedge, Cyperus difformis); assay: Test B flooded paddy test, umbrella sedge; conditions: 250 g ai/ha, Flood; visual rating after 13 to 15 days; scale 0 to 100, 0 is no effect, 100 is complete control
# Outline: as §2
# [17] = tested on: ducksalad (Heteranthera limosa); assay: Test B flooded paddy test, ducksalad; conditions: 250 g ai/ha, Flood; visual rating after 13 to 15 days; scale 0 to 100, 0 is no effect, 100 is complete control
# Outline: as §2
# [18] = tested on: barnyardgrass (Echinochloa crus-galli); assay: Test B flooded paddy test, barnyardgrass; conditions: 250 g ai/ha, Flood; visual rating after 13 to 15 days; scale 0 to 100, 0 is no effect, 100 is complete control
# Outline: as §2
SMILES,"Plant response rating, Barnyardgrass ([1]; 125 g ai/ha)","Plant response rating, Kochia (kochia (Kochia scoparia) [2]; 125 g ai/ha)","Plant response rating, Ragweed ([3]; 125 g ai/ha)","Plant response rating, Ryegrass, Italian ([4]; 125 g ai/ha)","Plant response rating, Foxtail, Giant ([5]; 125 g ai/ha)","Plant response rating, Pigweed ([6]; 125 g ai/ha)","Plant response rating, Barnyardgrass ([7]; 125 g ai/ha)","Plant response rating, Kochia (kochia (Kochia scoparia) [8]; 125 g ai/ha)","Plant response rating, Ragweed ([9]; 125 g ai/ha)","Plant response rating, Ryegrass, Italian ([10]; 125 g ai/ha)","Plant response rating, Foxtail, Giant ([11]; 125 g ai/ha)","Plant response rating, Pigweed ([12]; 125 g ai/ha)","Plant response rating, Wheat ([13]; 125 g ai/ha)","Plant response rating, Corn (corn (Zea mays); 125 g ai/ha)","Plant response rating, Blackgrass ([14]; 125 g ai/ha)","Plant response rating, Galium ([15]; 125 g ai/ha)","Plant response rating, Rice (rice (Oryza sativa))","Plant response rating, Sedge, Umbrella [16]","Plant response rating, Ducksalad [17]","Plant response rating, Barnyardgrass [18]",also measured
FC(F)(F)CCCCOc1c(Br)cccc1Oc1ncc(Cl)cn1 [Compound 33],50,20,0,20,100,90,60,90,10,20,60,100,10,20,40,90,0,95,30,0,"Plant response rating, Barnyardgrass ([1]; 31 g ai/ha): 10; Plant response rating, Kochia (kochia (Kochia scoparia) [2]; 31 g ai/ha): 0; Plant response rating, Ragweed ([3]; 31 g ai/ha): 0; Plant response rating, Ryegrass, Italian ([4]; 31 g ai/ha): 0; Plant response rating, Foxtail, Giant ([5]; 31 g ai/ha): 60; Plant response rating, Pigweed ([6]; 31 g ai/ha): 10; Plant response rating, Barnyardgrass ([7]; 31 g ai/ha): 10; Plant response rating, Kochia (kochia (Kochia scoparia) [8]; 31 g ai/ha): 50; Plant response rating, Ragweed ([9]; 31 g ai/ha): 0; Plant response rating, Ryegrass, Italian ([10]; 31 g ai/ha): 0; Plant response rating, Foxtail, Giant ([11]; 31 g ai/ha): 20; Plant response rating, Pigweed ([12]; 31 g ai/ha): 80; Plant response rating, Wheat ([13]; 31 g ai/ha): 0; Plant response rating, Corn (corn (Zea mays); 31 g ai/ha): 10; Plant response rating, Blackgrass ([14]; 31 g ai/ha): 10; Plant response rating, Galium ([15]; 31 g ai/ha): 50"
CC(COc1c(C#N)cccc1Oc1ncc(Cl)cn1)CC(F)(F)F (stereo not drawn) [Compound 34],70,80,0,10,100,100,20,90,10,0,40,100,10,20,20,70,20,75,40,0,"Plant response rating, Barnyardgrass ([1]; 500 g ai/ha): 100; Plant response rating, Kochia (kochia (Kochia scoparia) [2]; 500 g ai/ha): 100; Plant response rating, Ragweed ([3]; 500 g ai/ha): 10; Plant response rating, Ryegrass, Italian ([4]; 500 g ai/ha): 40; Plant response rating, Foxtail, Giant ([5]; 500 g ai/ha): 100; Plant response rating, Pigweed ([6]; 500 g ai/ha): 100; Plant response rating, Barnyardgrass ([7]; 500 g ai/ha): 50; Plant response rating, Kochia (kochia (Kochia scoparia) [8]; 500 g ai/ha): 100; Plant response rating, Ragweed ([9]; 500 g ai/ha): 10; Plant response rating, Ryegrass, Italian ([10]; 500 g ai/ha): 20; Plant response rating, Foxtail, Giant ([11]; 500 g ai/ha): 90; Plant response rating, Pigweed ([12]; 500 g ai/ha): 100; Plant response rating, Wheat ([13]; 500 g ai/ha): 20; Plant response rating, Corn (corn (Zea mays); 500 g ai/ha): 40; Plant response rating, Blackgrass ([14]; 500 g ai/ha): 60; Plant response rating, Galium ([15]; 500 g ai/ha): 90"
FC(F)=C(F)CCOc1c(Br)cccc1Oc1ncc(Cl)cn1 [Compound 38],70,70,0,10,100,100,30,70,10,10,40,80,0,20,10,50,0,100,75,0,"Plant response rating, Barnyardgrass ([1]; 31 g ai/ha): 10; Plant response rating, Kochia (kochia (Kochia scoparia) [2]; 31 g ai/ha): 0; Plant response rating, Ragweed ([3]; 31 g ai/ha): 0; Plant response rating, Ryegrass, Italian ([4]; 31 g ai/ha): 0; Plant response rating, Foxtail, Giant ([5]; 31 g ai/ha): 30; Plant response rating, Pigweed ([6]; 31 g ai/ha): 0; Plant response rating, Barnyardgrass ([7]; 31 g ai/ha): 10; Plant response rating, Kochia (kochia (Kochia scoparia) [8]; 31 g ai/ha): 20; Plant response rating, Ragweed ([9]; 31 g ai/ha): 0; Plant response rating, Ryegrass, Italian ([10]; 31 g ai/ha): 0; Plant response rating, Foxtail, Giant ([11]; 31 g ai/ha): 10; Plant response rating, Pigweed ([12]; 31 g ai/ha): 40; Plant response rating, Wheat ([13]; 31 g ai/ha): 0; Plant response rating, Corn (corn (Zea mays); 31 g ai/ha): 10; Plant response rating, Blackgrass ([14]; 31 g ai/ha): 0; Plant response rating, Galium ([15]; 31 g ai/ha): 10"
N#Cc1cccc(Oc2ncc(F)cn2)c1OC/C=C/C(F)(F)F [Compound 39],100,100,10,20,100,100,40,90,10,50,90,100,20,50,60,60,15,100,65,30,"Plant response rating, Barnyardgrass ([1]; 31 g ai/ha): 50; Plant response rating, Kochia (kochia (Kochia scoparia) [2]; 31 g ai/ha): 60; Plant response rating, Ragweed ([3]; 31 g ai/ha): 0; Plant response rating, Ryegrass, Italian ([4]; 31 g ai/ha): 0; Plant response rating, Foxtail, Giant ([5]; 31 g ai/ha): 90; Plant response rating, Pigweed ([6]; 31 g ai/ha): 100; Plant response rating, Barnyardgrass ([7]; 31 g ai/ha): 20; Plant response rating, Kochia (kochia (Kochia scoparia) [8]; 31 g ai/ha): 90; Plant response rating, Ragweed ([9]; 31 g ai/ha): 0; Plant response rating, Ryegrass, Italian ([10]; 31 g ai/ha): 0; Plant response rating, Foxtail, Giant ([11]; 31 g ai/ha): 20; Plant response rating, Pigweed ([12]; 31 g ai/ha): 90; Plant response rating, Wheat ([13]; 31 g ai/ha): 0; Plant response rating, Corn (corn (Zea mays); 31 g ai/ha): 20; Plant response rating, Blackgrass ([14]; 31 g ai/ha): 10; Plant response rating, Galium ([15]; 31 g ai/ha): 20"
N#Cc1cccc(Oc2ncc(F)cn2)c1OCCC(F)(F)F [Compound 40],80,100,90,10,90,100,50,70,10,10,80,90,0,20,30,60,0,70,75,0,"Plant response rating, Barnyardgrass ([1]; 31 g ai/ha): 30; Plant response rating, Kochia (kochia (Kochia scoparia) [2]; 31 g ai/ha): 90; Plant response rating, Ragweed ([3]; 31 g ai/ha): 10; Plant response rating, Ryegrass, Italian ([4]; 31 g ai/ha): 0; Plant response rating, Foxtail, Giant ([5]; 31 g ai/ha): 70; Plant response rating, Pigweed ([6]; 31 g ai/ha): 100; Plant response rating, Barnyardgrass ([7]; 31 g ai/ha): 0; Plant response rating, Kochia (kochia (Kochia scoparia) [8]; 31 g ai/ha): 50; Plant response rating, Ragweed ([9]; 31 g ai/ha): 0; Plant response rating, Ryegrass, Italian ([10]; 31 g ai/ha): 0; Plant response rating, Foxtail, Giant ([11]; 31 g ai/ha): 10; Plant response rating, Pigweed ([12]; 31 g ai/ha): 80; Plant response rating, Wheat ([13]; 31 g ai/ha): 0; Plant response rating, Corn (corn (Zea mays); 31 g ai/ha): 10; Plant response rating, Blackgrass ([14]; 31 g ai/ha): 10; Plant response rating, Galium ([15]; 31 g ai/ha): 20"

# — patent US10485235B2, “Aryloxypyrimidinyl ethers as herbicides” (FMC Corporation, priority 2015, dated 2019)
